Data from article PMC8725448 (Journal of Cannabis Research, 2022).
Where “and” joins values, the source holds several entries; their conditions need not be identical. Equal values may be shown once. Read-outs that look alike come from different tables or passages of the source.

How the values were obtained:
[1] = system: hyperthermia-induced seizures in Scn1a^+/- mice; details: cited from earlier work
[2] = molecular target: T1, CaV3.1 (Homo sapiens, UniProt O43497); parameters: method as in Anderson et al. 2021a, 2021b and unpublished data; details: at therapeutically relevant concentrations; ref Anderson et al. 2021a, 2021b and unpublished data; cited from earlier work
T1 construct: expressed in transfected cells; host or cells: Flp-In T-REx HEK (tetracycline-induced)

[3] = parameters: method as in Anderson et al. 2019b; details: CBGA; ref Anderson et al. 2019b; cited from earlier work
[4] = system: maximal electroshock (MES) seizure threshold; parameters: method as in Anderson et al. 2021b; details: ref Anderson et al. 2021b; cited from earlier work
[5] = molecular target: T2, human GPR55 (Homo sapiens, UniProt Q9Y2T6); parameters: method as in Anderson et al. 2021a, 2021b and unpublished data; details: at therapeutically relevant concentrations; ref Anderson et al. 2021a, 2021b and unpublished data; cited from earlier work
T2 construct: expressed in transfected cells; host or cells: HEK293

[6] = system: control HEK293 cells; assay: GPR55 negative control pERK experiment; format: cell-based, human; details: 10 μM; control HEK293 cells without GPR55
Experimental: ERK phosphorylation (pERK) was detected using the AlphaScreen® SureFire® Phospho-ERK1/2 assay (Perkin Elmer; Waltham, USA) as previously described (Anderson et al. [2021b]). Briefly, the human embryonic kidney (HEK) 293 cells stably expressing human GPR55 in L-15 media were plated (110,000/well) into a Corning CellBIND (Corning Inc; Corning, USA) clear, flat-bottomed 96-well plate and incubated 20–24 h at 37°C in ambient CO2. Media was aspirated, 50 μL phenol red-free DMEM/F-12 was added to each well and incubated for 2–3 h at 37°C in a humidified 5% CO2 atmosphere. Compounds (10 μM in phenol red-free DMEM/F-12) were added and incubated for 20 min before media was aspirated and lysis buffer was added. Lysates (5 μL) were incubated with reaction mixture (7 μL) for 3.5 h at room temperature. A CLARIOstar plate reader (BMG Labtech; Offenburg, GER) was used to take fluorescence readings over 740 msec (excitation 680 nm, emission 520–620 nm). Fluorescence readings were normalized to those of 4 μM LPI, the endogenous GPR55 agonist. No effect of LPI (10 μM) is observed in control HEK293 cells (Supplemental Fig. 1). Final DMSO concentrations were ≤ 0.2%. […]
(LPI). Data are expressed as mean ± SEM normalized to 100 nM phorbol 12-myrisate 13-acetate (PMA), […]

[7] = ref Anderson et al. 2019b, 2021a, 2021b

T2 sequence (Q9Y2T6 whole entry): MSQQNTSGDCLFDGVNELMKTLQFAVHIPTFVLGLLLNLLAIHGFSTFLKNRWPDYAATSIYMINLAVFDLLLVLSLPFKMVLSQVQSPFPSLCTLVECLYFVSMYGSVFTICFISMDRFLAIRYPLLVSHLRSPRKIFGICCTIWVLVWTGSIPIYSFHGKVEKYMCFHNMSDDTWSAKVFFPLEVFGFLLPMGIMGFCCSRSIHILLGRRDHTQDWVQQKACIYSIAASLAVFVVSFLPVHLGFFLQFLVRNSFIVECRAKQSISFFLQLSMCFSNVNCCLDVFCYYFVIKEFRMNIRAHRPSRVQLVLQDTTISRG
T1 sequence (O43497 whole entry): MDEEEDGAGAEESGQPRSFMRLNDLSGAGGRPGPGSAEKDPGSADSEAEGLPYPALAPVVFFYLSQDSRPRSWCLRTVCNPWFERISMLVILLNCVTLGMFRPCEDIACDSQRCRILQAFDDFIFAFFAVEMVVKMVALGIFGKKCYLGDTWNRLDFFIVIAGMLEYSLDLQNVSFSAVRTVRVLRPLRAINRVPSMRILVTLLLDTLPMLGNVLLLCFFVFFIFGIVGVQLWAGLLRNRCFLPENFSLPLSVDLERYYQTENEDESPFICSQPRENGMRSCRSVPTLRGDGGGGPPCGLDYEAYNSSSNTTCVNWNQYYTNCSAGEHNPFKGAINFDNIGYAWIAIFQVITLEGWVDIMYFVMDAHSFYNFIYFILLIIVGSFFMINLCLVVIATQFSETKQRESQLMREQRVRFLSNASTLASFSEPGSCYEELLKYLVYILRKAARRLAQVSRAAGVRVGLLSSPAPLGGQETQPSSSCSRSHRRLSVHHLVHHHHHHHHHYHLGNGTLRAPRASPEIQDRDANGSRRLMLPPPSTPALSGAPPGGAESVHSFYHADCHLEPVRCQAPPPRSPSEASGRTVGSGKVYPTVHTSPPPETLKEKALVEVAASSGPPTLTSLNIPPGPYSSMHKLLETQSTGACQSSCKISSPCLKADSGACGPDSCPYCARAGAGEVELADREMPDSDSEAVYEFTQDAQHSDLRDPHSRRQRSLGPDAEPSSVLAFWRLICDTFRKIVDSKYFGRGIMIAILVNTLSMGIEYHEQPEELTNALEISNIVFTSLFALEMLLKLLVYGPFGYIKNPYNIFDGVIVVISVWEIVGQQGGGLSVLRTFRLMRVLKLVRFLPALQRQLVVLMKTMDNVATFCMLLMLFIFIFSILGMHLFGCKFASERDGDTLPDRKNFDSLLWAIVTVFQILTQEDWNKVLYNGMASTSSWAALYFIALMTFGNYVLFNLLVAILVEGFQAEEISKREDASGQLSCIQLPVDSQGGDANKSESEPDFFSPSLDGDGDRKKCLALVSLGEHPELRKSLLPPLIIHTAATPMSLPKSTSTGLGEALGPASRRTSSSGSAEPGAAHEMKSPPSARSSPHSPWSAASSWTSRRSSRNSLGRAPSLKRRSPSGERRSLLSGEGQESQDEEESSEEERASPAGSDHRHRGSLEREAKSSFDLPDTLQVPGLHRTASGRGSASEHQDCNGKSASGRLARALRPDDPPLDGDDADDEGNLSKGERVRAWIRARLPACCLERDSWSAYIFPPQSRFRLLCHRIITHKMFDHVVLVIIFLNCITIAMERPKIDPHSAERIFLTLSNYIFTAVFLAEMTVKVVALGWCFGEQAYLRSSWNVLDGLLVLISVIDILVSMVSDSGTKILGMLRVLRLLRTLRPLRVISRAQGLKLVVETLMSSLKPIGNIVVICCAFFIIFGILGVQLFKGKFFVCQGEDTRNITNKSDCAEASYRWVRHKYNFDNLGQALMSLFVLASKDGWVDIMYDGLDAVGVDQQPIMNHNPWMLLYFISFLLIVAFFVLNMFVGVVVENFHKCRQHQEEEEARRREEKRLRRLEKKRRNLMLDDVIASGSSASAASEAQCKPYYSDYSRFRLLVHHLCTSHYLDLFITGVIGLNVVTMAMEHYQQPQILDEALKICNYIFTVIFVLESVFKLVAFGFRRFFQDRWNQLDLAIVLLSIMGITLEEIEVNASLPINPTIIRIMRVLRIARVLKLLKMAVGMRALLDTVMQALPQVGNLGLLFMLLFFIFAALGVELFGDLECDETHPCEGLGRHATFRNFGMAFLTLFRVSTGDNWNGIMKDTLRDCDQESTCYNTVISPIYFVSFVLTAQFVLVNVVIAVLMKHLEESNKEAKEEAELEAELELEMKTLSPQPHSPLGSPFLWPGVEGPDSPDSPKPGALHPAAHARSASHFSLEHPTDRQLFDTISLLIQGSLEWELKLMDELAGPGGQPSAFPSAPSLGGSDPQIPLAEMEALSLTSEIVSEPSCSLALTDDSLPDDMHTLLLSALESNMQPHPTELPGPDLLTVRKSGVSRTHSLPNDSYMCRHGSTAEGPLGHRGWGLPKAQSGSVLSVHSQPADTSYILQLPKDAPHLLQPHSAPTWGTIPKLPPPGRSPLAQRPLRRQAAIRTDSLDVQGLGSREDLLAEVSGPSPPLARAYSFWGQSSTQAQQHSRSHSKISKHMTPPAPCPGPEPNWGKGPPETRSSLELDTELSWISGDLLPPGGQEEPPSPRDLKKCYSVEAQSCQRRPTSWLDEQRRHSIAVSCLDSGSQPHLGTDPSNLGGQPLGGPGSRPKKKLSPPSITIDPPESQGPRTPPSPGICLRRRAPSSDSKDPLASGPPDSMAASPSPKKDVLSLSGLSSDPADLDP

Which “efficacy against hyperthermia-induced seizures” value (“efficacy” below) [1, 7] does the source give for `C=C(C)[C@@H]1CCC(C)=C[C@H]1c1c(O)cc(CCCCC)c(C(=O)O)c1O` [CBDA, cannabidiolic acid] here?
Its value is “anticonvulsant”.

For `CCCCCc1cc2c(c(O)c1C(=O)O)C=CC(C)(CCC=C(C)C)O2` (centres unmarked) [CBCA], which “efficacy” value [1, 7] is on record?
Its value is “anticonvulsant”.

For `CCCCCc1cc(O)c(C/C=C(\C)CCC=C(C)C)c(O)c1` [CBG, cannabigerol], which “efficacy” value [1, 7] is on record?
The value was “not effective”.

Which “activity at Cav3.1 channels” value [2] does the source give for `CCCCCc1cc(O)c(C/C=C(\C)CCC=C(C)C)c(O)c1C(=O)O` [CBGA, Cannabigerolic acid] here?
The value was “inhibition”.

What about the “brain penetration / brain uptake” value [3] of the same compound?
The value was 2% and ~ 2%.

What about the “anticonvulsant properties in MES seizure threshold test” value [4] of the same compound?
The value was “anticonvulsant properties”.

And the “activity at GPR55” value [5]?
The value was “inhibition”.

What about the “efficacy” value ([1]; 30 mg/kg, ref Anderson et al. 2021b) of the same compound?
The value was “effective”.

What about the “increase of threshold temperature” value ([1]; 100 mg/kg, ref Anderson et al. 2021b) of the same compound?
Its value is about 1 °C.

What about the “efficacy” value [1, 7] of the same compound?
Its value is “anticonvulsant properties”.

With Lysophosphatidylinositol [LPI] as the compound, how does the “effect on ERK phosphorylation” value [6] read?
Its value is “No effect”.

For `C=C(C)[C@@H]1CCC(C)=C[C@H]1c1c(O)cc(CCCCC)cc1O` [CBD, cannabidiol], which “increase of temperature threshold” value ([1]; 100 mg/kg, ref Anderson et al. 2019a, 2020, Kaplan et al. 2017) is on record?
Its value is “approximately 0.5 °C”.

For `C=C(C)[C@@H]1CCC(C)=C[C@H]1c1c(O)cc(CCC)c(C(=O)O)c1O` [CBDVA], which “efficacy” value [1, 7] is on record?
The value was “anticonvulsant”.

With `CCCc1cc(O)c(C/C=C(\C)CCC=C(C)C)c(O)c1C(=O)O` [CBGVA] as the compound, how does the “efficacy” value [1, 7] read?
Its value is “anticonvulsant”.
